Like-named read-outs stand apart in the source and are kept apart here.
Columns and labels:
[1] = molecular target: T1, ETA (Oryctolagus cuniculus, UniProt A5A8K3)
T1 sequence (A5A8K3 21-427): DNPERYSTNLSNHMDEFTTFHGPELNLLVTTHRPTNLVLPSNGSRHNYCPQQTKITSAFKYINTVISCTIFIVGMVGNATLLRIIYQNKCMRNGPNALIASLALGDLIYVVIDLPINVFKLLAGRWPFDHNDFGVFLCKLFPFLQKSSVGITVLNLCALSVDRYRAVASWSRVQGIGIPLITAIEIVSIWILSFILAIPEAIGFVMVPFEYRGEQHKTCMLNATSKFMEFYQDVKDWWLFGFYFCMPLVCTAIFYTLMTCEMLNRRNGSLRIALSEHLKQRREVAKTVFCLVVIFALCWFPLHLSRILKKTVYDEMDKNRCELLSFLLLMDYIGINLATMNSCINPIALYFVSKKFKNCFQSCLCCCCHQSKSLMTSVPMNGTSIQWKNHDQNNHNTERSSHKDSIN

[2] = molecular target: T1, ETA; test: VERA-A: antagonism of ET-1 stimulated vasoconstriction in the rabbit femoral artery (ETA); type: cell-based; conditions: ET-1, rabbit femoral artery; read-out: VERA-A pA2 (converted)
Method: Male New Zealand rabbits were killed by cervical dislocation and exsanguination. Femoral and pulmonary arteries were isolated, cleaned of connective tissue, and cut into 4-mm rings. The endothelium was denuded by placing the rings over hypodermic tubing (32 gauge for femoral rings and 28 gauge for pulmonary rings, Small Parts, Inc, Miami, Fla.) and gently rolling them. […] Resting tension was adjusted to 3.0 g for femoral and 4.0 g pulmonary arteries; the rings were left for 90 minutes to equilibrate.

[3] = molecular target: T2, human ETB receptor (Homo sapiens, UniProt P24530); test: ERBA-B: [125I]-ET-1 binding, recombinant human ETB receptor expressed in CHO-K1 cells; conditions: human cloned ETB receptor, read-out: ERBA-B IC50, human cloned receptor data
T2 construct: expressed in transfected cells; host or cells: CHO-K1 cells, pRc-CMW (so in the source) expression vector, electroporation; membranes used
T2 sequence (P24530 27-442): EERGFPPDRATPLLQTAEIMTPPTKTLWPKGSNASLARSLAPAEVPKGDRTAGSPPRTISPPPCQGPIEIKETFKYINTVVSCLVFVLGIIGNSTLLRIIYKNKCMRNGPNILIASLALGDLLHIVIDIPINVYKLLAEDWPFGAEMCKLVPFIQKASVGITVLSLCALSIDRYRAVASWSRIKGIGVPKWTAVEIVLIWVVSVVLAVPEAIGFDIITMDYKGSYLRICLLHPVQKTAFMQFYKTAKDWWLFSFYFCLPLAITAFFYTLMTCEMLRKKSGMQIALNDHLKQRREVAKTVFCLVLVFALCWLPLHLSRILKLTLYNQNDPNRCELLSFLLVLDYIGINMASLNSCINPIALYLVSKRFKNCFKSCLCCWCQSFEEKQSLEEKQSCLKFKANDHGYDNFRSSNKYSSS

[4] = molecular target: T3, ETB (Rattus norvegicus, UniProt P21451)
T3 sequence (P21451 27-442): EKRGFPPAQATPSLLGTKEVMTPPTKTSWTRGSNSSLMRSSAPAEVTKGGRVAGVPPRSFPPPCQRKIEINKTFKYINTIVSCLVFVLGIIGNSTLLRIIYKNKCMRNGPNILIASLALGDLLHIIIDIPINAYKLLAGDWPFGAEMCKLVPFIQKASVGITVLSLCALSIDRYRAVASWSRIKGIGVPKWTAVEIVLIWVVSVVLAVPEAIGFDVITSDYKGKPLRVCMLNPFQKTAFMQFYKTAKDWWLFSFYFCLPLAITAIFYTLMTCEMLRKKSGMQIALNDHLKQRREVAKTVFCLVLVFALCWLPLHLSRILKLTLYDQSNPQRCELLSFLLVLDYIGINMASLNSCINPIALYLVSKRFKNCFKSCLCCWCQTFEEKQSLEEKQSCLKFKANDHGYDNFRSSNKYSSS
Method: The tissue is made up of 20 mM tris(hydroxymethyl)aminomethane hydrochloride (Trizma) buffer, 2 mM ethylenediaminetetra acetate, 100 μM phenylmethylsulfonyl fluoride.
First, thaw one aliquot of frozen rat cerebellar membranes (2 mg protein in 0.5 mL). Next, add 0.5 mL membrane aliquot to 4.5 mL cold tissue buffer, polytron at 7,500 revolutions per minute for 10 seconds. Finally, dilute tissue suspension 1/100 (0.1 mL suspension+9.9 mL tissue buffer), polytron again, and place ice.
Mix in 150 μL of tissue to each tube, vortex briefly, then tap to force all liquids to bottom (total assay volume=250 μL). Then place the tubes in a 37° C. water bath for 2 hours.
Add 2.5 mL cold wash buffer (50 mM Trizma buffer) to each tube, filter, and then wash tube with additional 2.5 mL wash buffer and add to filter. Finally, wash filters with an additional 2.5 mL of cold wash buffer.
Count filters for radioactivity in gamma counter.

[5] = ERBA-A IC50, [125I]-ET-1, rabbit renal artery vascular smooth muscle cells

| Structure (SMILES) | IC50 [1, 5] | Kb [2] | IC50 [3] | IC50 [4] | IC50 ([4]; read-out: ERBA-B IC50, [125I]-ET-1, rat cerebellar membranes) | IC50 ([1]; read-out: ERBA-A IC50, [125I]-ET-1, rabbit renal artery vascular smooth muscle cells) |
| --- | --- | --- | --- | --- | --- | --- |
| COc1ccc(C2(O)OC(=O)C(c3cc(OC)c4c(c3)OCO4)=C2Cc2cc(OC)c(OC)c(OC)c2)cc1C (stereo not drawn) [Example 361, 5-Hydroxy-3-(7-methoxy-benzo[1,3]dioxol-5-yl)-5-(4-methoxy-3-methyl-phenyl) -4-(3,4,5-trimethoxy-benzyl)-5H-furan-2-one] | 2 nM | 39.8 nM | 220 nM |  |  |  |
| COc1ccc(C2(O)OC(=O)C(c3ccc4c(c3)OCO4)=C2Cc2ccc(SC)cc2)cc1 (stereo not drawn) [Example 236, 3-Benzo[1,3]dioxol-5-yl-5-hydroxy-5-(4-methoxyphenyl)-4-(4-methylsulfanylbenzyl)-5H-furan-2-one] | 230 nM | 316 nM |  |  |  |  |
| COc1ccc(C2(O)OC(=O)C(c3ccc4c(c3)OCO4)=C2Cc2ccc(OC)c(Cl)c2)cc1 (stereo not drawn) [Example 92, 3-Benzo[1,3]dioxol-5-yl-4-(3-chloro-4-methoxybenzyl)-5-hydroxy-5-(4-methoxyphenyl)-5H-furan-2-one] | 4 nM | 251 nM | 1400 nM |  |  |  |
| COc1cc(OC)cc(C2=C(Cc3cc(OC)c(OC)c(OC)c3)C(O)(c3ccc(OC)c(C)c3)OC2=O)c1 (stereo not drawn) [Example 382, 3-(3,5-Dimethoxy-phenyl)-5-hydroxy-5-(4-methoxy-3-methyl-phenyl)-4-(3,4,5-trimethoxy-benzyl)-5H-furan-2-one] | 0.9 nM | 158 nM | > 250 nM |  |  |  |
| COc1ccc(C2(O)OC(=O)C(c3ccc4c(c3)OCO4)=C2Cc2ccc(NC(C)=O)cc2)cc1 (stereo not drawn) [Example 80, N-{4-[4-Benzo[1,3]dioxol-5-yl-2-hydroxy-2-(4-methoxyphenyl)-5-oxo-2,5-dihydro-furan-3-ylmethyl]-phenyl}-acetamide] | 1.4 nM | 63.1 nM | 880 nM |  |  |  |
| COc1ccc(C2(O)OC(=O)C(c3cc(OC)c4c(c3)OCO4)=C2Cc2cc(OC)c(OC)c(OC)c2)cc1 (stereo not drawn) [Example 356, 5-Hydroxy-3-(7-methoxy-benzo[1,3]dioxol-5-yl)-5-(4-methoxy-phenyl)-4-(3,4,5-trimethoxy-benzyl)-5H-furan-2-one] | 0.25 nM | 20 nM | 340 nM |  |  |  |
| COc1ccc(C(=O)/C(Cc2ccccc2OC)=C(\C(=O)O)c2ccc3c(c2)OCO3)cc1 |  | 251 nM |  |  |  |  |
| COc1ccc(C2(O)OC(=O)C(c3cc(OC)c4c(c3)OCO4)=C2Cc2ccccc2)cc1C (stereo not drawn) [Example 360, 4-Benzyl-5-hydroxy-3-(7-methoxy-benzo[1,3]dioxol-5-yl)-5-(4-methoxy-3-methyl-phenyl)-5H-furan-2-one] | 9.9 nM | 100 nM | 1350 nM |  |  |  |
| COc1ccc(C(=O)/C(Cc2ccccc2)=C(\C(=O)O)c2ccc3c(c2)OCO3)cc1 [Example 351, Sodium 2-benzo[1,3]dioxol-5-yl-3-benzyl-4-(4-methoxyphenyl)-4-oxobut-2-enoate] | 16 nM | 631 nM | > 250 nM |  |  |  |
| COc1ccc(C2(O)OC(=O)C(c3ccc4c(c3)OCO4)=C2Cc2ccccc2)c(OC)c1 (stereo not drawn) [Example 241, 3-Benzo[1,3]dioxol-5-yl-4-benzyl-5-(2,4-dimethoxyphenyl)-5-hydroxy-5H-furan-2-one] | 35 nM | 631 nM |  |  |  |  |
| Cc1ccc(CC2=C(c3ccc4c(c3)OCO4)C(=O)OC2(O)c2ccc(Cl)cc2)cc1 (stereo not drawn) [Example 33, 2(5H)-Furanone, 3-(1,3-benzodioxol-5-yl)-5-(4-chlorophenyl)-5-hydroxy-4-[(4-methylphenyl)methyl]-] | 3500 nM |  |  | 5700 nM |  |  |
| CN(C)c1ccc(CC2=C(c3ccc(Cl)c(Cl)c3)C(=O)OC2(O)c2ccc(Cl)cc2)cc1 (stereo not drawn) [Example 119, 5-(4-Chlorophenyl)-3-(3,4-dichlorophenyl)-4-(4-dimethylaminobenzyl)-5-hydroxy-5H-furan-2-one] | 5800 nM |  |  | 4100 nM |  |  |
| CCCOc1cccc(CC2=C(c3cccc(OC)c3)C(=O)OC2(O)c2ccc(OC)cc2)c1 (stereo not drawn) [Example 154, 5-Hydroxy-5-(4-methoxyphenyl)-3-(3-methoxyphenyl)-4-(3-propoxybenzyl)-5H-fu ran-2-one] | 100 nM |  |  | 2100 nM |  |  |
| O=C1OC(O)(c2ccc(Cl)cc2)C(Cc2cccc(Cl)c2)=C1c1ccc2c(c1)OCO2 (stereo not drawn) [Example 74, 2(5H)-Furanone, 3-(1,3-benzodioxol-5)-5-(4-chlorophenyl)-4-[(3-chlorophenyl)methyl]-5-hydroxy] |  |  |  |  | 12000 nM | 2500 nM |
| COc1ccc(C2=C(Cc3ccccc3)C(O)(c3ccc(Cl)cc3)OC2=O)cc1OC (racemic) [Example 67, 2(5H)-Furanone, 5-(4-chlorophenyl)-3-(3,4-dimethoxyphenyl)-5-hydroxy-4-(phenylmethyl)-, (±)-] | 7100 nM |  |  | 6300 nM |  |  |
| COc1ccc(C2(O)OC(=O)C(c3ccc4c(c3)OCO4)=C2Cc2ccc(C(C)(C)C)cc2)cc1 (stereo not drawn) [Example 79, 3-Benzo[1,3]dioxol-5-yl-4-(4-tert-butylbenzyl)-5-hydroxy-5-(4-methoxyphenyl)-5H-furan-2-one] | 84 nM |  |  | 520 nM |  |  |
| O=C1OC(O)(c2ccc(Cl)cc2)C(Cc2ccccc2)=C1c1ccc(Cl)c(Cl)c1 (racemic) [Example 61, 2(5H)-Furanone, 5-(4-chlorophenyl)-3-(3,4-dichlorophenyl)-5-hydroxy-4-(phenylmethyl)-, (±)-] | 11000 nM |  |  | 11000 nM |  |  |
| CC(C)c1ccc(CC2=C(c3ccc(Cl)c(Cl)c3)C(=O)OC2(O)c2ccc(Cl)cc2)cc1 (stereo not drawn) [Example 118, 5-(4-Chlorophenyl)-3-(3,4-dichlorophenyl)-5-hydroxy-4-(4-isopropylbenzyl)-5 H-furan-2-one] | 540 nM |  |  | 13000 nM |  |  |
| Cn1cc(CC2=C(c3ccc4c(c3)OCO4)C(=O)OC2(O)c2ccc(Cl)cc2)c2ccccc21 (racemic) [Example 66, 2 (5H)-Furanone, 3-(1,3-benzodioxol-5-yl)-5-(4-chlorophenyl)-5-hydroxy-4-[(1-methyl-1H-indol-3-yl)methyl], (±)-] | 2400 nM |  |  | 7400 nM |  |  |
| COc1ccc(C2(O)OC(=O)C(c3cn(C)c4ccccc34)=C2Cc2ccccc2)cc1 (stereo not drawn) [Example 170] | 1300 nM |  |  | 900 nM |  |  |
| O=C1OC(O)(c2ccc(Cl)cc2)C(Cc2ccc(Cl)cc2)=C1c1ccc2c(c1)OCO2 (stereo not drawn) [Example 31, 2(5H)-Furanone, 3-(1,3-benzodioxol-5-yl)-5-(4-chlorophenyl)-4-[(4-chlorophenyl)methyl]-5-hydroxy-] | 9900 nM |  |  | 9100 nM |  |  |
| COc1ccc(C2(O)OC(=O)C(c3ccc4c(c3)OCO4)=C2Cc2ccc(Cl)c(Cl)c2)cc1 (stereo not drawn) [Example 78, 3-Benzo[1,3]dioxol-5-yl-4-(3,4-dichlorobenzyl)-5-hydroxy-5-(4-methoxyphenyl)-5H-furan-2-one] | 240 nM |  |  | 890 nM |  |  |
| O=C1OC(O)(c2ccc(Cl)cc2)C(Cc2ccccc2)=C1c1ccc2c(c1)OCCO2 (stereo not drawn) [Example 30, 2(5H)-Furanone, 5-(4-chlorophenyl)-3-(2,3-dihydro-1,4-benzodioxin-6-yl)-5-hydroxy-4-(phenylmethyl)-] | 7900 nM |  |  | 13000 nM |  |  |
| COc1cccc(CC2=C(c3ccc4c(c3)OCO4)C(=O)OC2(O)c2ccc(Cl)cc2)c1 (stereo not drawn) [Example 47, 2(5H)-Furanone, 3-(1,3-benzodioxol-5-yl)-5-(4-chlorophenyl)-5-hydroxy-4-[(3-methoxyphenyl)methyl]-] | 3900 nM |  |  | 7800 nM |  |  |

— patent US5691373A, “Nonpeptide endothelin antagonists I” (Warner-Lambert Company, priority 1995, dated 1997)
